Results taken from ChEMBL document CHEMBL5143638, “Natural aloe emodin-hybridized sulfonamide aminophosphates as novel potential membrane-perturbing and DNA-intercalating agents against Enterococcus faecalis” (Bioorg Med Chem Lett, 2022).
Converted amounts (≈) assume the structure as drawn.

Assays:
Format in all cases: functional
Escherichia coli [1] = experiment: Antibacterial activity against Escherichia coli ATCC 25922 assessed as inhibition of bacterial growth measured after 24 hrs by CLSI based broth microdilution method
Pseudomonas aeruginosa [2] = experiment: Antibacterial activity against Pseudomonas aeruginosa ATCC 27853 assessed as inhibition of bacterial growth measured after 24 hrs by CLSI based broth microdilution method
Pseudomonas aeruginosa [3] = experiment: Antibacterial activity against Pseudomonas aeruginosa assessed as inhibition of bacterial growth measured after 24 hrs by CLSI based broth microdilution method
Enterococcus faecalis = experiment: Antibacterial activity against Enterococcus faecalis assessed as inhibition of bacterial growth measured after 24 hrs by CLSI based broth microdilution method
Staphylococcus aureus [4] = experiment: Antibacterial activity against Staphylococcus aureus assessed as inhibition of bacterial growth measured after 24 hrs by CLSI based broth microdilution method
Klebsiella pneumoniae = experiment: Antibacterial activity against Klebsiella pneumoniae assessed as inhibition of bacterial growth measured after 24 hrs by CLSI based broth microdilution method
Staphylococcus aureus [5] = experiment: Antibacterial activity against Staphylococcus aureus ATCC 25923 assessed as inhibition of bacterial growth measured after 24 hrs by CLSI based broth microdilution method
Acinetobacter baumannii = experiment: Antibacterial activity against Acinetobacter baumannii assessed as inhibition of bacterial growth measured after 24 hrs by CLSI based broth microdilution method
Escherichia coli [6] = experiment: Antibacterial activity against Escherichia coli assessed as inhibition of bacterial growth measured after 24 hrs by CLSI based broth microdilution method
Staphylococcus aureus [7] = experiment: Antibacterial activity against methicillin-resistant Staphylococcus aureus N315 assessed as inhibition of bacterial growth measured after 24 hrs by CLSI based broth microdilution method

Row | Structure (SMILES) | MIC (Escherichia coli [1]) [µg/mL] | MIC (Pseudomonas aeruginosa [2]) [µg/mL] | MIC (Pseudomonas aeruginosa [3]) [µg/mL] | MIC (Enterococcus faecalis) [µg/mL] | MIC (Staphylococcus aureus [4]) [µg/mL] | MIC (Klebsiella pneumoniae) [µg/mL] | MIC (Staphylococcus aureus [5]) [µg/mL] | MIC (Acinetobacter baumannii) [µg/mL] | MIC (Escherichia coli [6]) [µg/mL] | MIC (Staphylococcus aureus [7]) [µg/mL]
1 | NS(=O)(=O)c1ccc(NC(c2cc(O)c3c(c2)C(=O)c2cccc(O)c2C3=O)P(=O)(Oc2ccccc2)Oc2ccccc2)cc1 (stereo not given) | 32 (≈ 48.7 µM) | 32 (≈ 48.7 µM) | 128 (≈ 195 µM) | 32 (≈ 48.7 µM) | 64 (≈ 97.5 µM) | 128 (≈ 195 µM) | 256 (≈ 390 µM) | 16 (≈ 24.4 µM) | 64 (≈ 97.5 µM) | 16 (≈ 24.4 µM)
2 | COP(=O)(OC)C(Nc1ccc(S(=O)(=O)Nc2cc(C)on2)cc1)c1cc(O)c2c(c1)C(=O)c1cccc(O)c1C2=O (stereo not given) | 64 (≈ 104 µM) | 64 (≈ 104 µM) | 16 (≈ 26.1 µM) | 64 (≈ 104 µM) | 8 (≈ 13 µM) | 32 (≈ 52.2 µM) | 0.5 (≈ 0.815 µM) | 128 (≈ 209 µM) | 16 (≈ 26.1 µM) | 128 (≈ 209 µM)
3 | O=C1c2cccc(O)c2C(=O)c2c(O)cc(C(Nc3ccc(S(=O)(=O)Nc4ncccn4)cc3)P(=O)(Oc3ccccc3)Oc3ccccc3)cc21 (stereo not given) | 32 (≈ 43.6 µM) | 64 (≈ 87.1 µM) | 128 (≈ 174 µM) | 64 (≈ 87.1 µM) | 32 (≈ 43.6 µM) | 128 (≈ 174 µM) | 256 (≈ 348 µM) | 64 (≈ 87.1 µM) | 64 (≈ 87.1 µM) | 64 (≈ 87.1 µM)
4 | Cc1cc(NS(=O)(=O)c2ccc(N)cc2)no1 [SULFAMETHOXAZOLE] | 4 (≈ 15.8 µM) | 2 (≈ 7.9 µM) | 4 (≈ 15.8 µM) | 16 (≈ 63.2 µM) | 8 (≈ 31.6 µM) | 8 (≈ 31.6 µM) | 32 (≈ 126 µM) | 4 (≈ 15.8 µM) | 64 (≈ 253 µM) | 4 (≈ 15.8 µM)
5 | Nc1ccc(S(=O)(=O)Nc2nccs2)cc1 [SULFATHIAZOLE] | 64 (≈ 251 µM) | 64 (≈ 251 µM) | 64 (≈ 251 µM) | 64 (≈ 251 µM) | 128 (≈ 501 µM) | 256 (≈ 1000 µM) | 64 (≈ 251 µM) | 32 (≈ 125 µM) | 64 (≈ 251 µM) | 128 (≈ 501 µM)
6 | CCn1cc(C(=O)O)c(=O)c2cc(F)c(N3CCNCC3)cc21 [NORFLOXACIN] | 4 (≈ 12.5 µM) | 2 (≈ 6.26 µM) | 2 (≈ 6.26 µM) | 4 (≈ 12.5 µM) | 8 (≈ 25.1 µM) | 4 (≈ 12.5 µM) | 4 (≈ 12.5 µM) | 8 (≈ 25.1 µM) | 8 (≈ 25.1 µM) | 8 (≈ 25.1 µM)
7 | CCCCOP(=O)(OCCCC)C(Nc1ccc(S(=O)(=O)Nc2nccs2)cc1)c1cc(O)c2c(c1)C(=O)c1cccc(O)c1C2=O (stereo not given) | 256 (≈ 366 µM) | 256 (≈ 366 µM) | 256 (≈ 366 µM) | 256 (≈ 366 µM) | 256 (≈ 366 µM) | 256 (≈ 366 µM) | 256 (≈ 366 µM) | 256 (≈ 366 µM) | 256 (≈ 366 µM) | 256 (≈ 366 µM)
8 | Nc1ccc(S(N)(=O)=O)cc1 [SULFANILAMIDE] | 4 (≈ 23.2 µM) | 2 (≈ 11.6 µM) | 4 (≈ 23.2 µM) | 128 (≈ 743 µM) | 128 (≈ 743 µM) | 8 (≈ 46.5 µM) | 256 (≈ 1490 µM) | 4 (≈ 23.2 µM) | 64 (≈ 372 µM) | 256 (≈ 1490 µM)
9 | Cc1cc(NS(=O)(=O)c2ccc(NC(c3cc(O)c4c(c3)C(=O)c3cccc(O)c3C4=O)P(=O)(Oc3ccccc3)Oc3ccccc3)cc2)no1 (stereo not given) | 32 (≈ 43.4 µM) | 256 (≈ 347 µM) | 64 (≈ 86.8 µM) | 64 (≈ 86.8 µM) | 64 (≈ 86.8 µM) | 128 (≈ 174 µM) | 256 (≈ 347 µM) | 64 (≈ 86.8 µM) | 64 (≈ 86.8 µM) | 64 (≈ 86.8 µM)
10 | CC(C)OP(=O)(OC(C)C)C(Nc1ccc(S(=O)(=O)Nc2nccs2)cc1)c1cc(O)c2c(c1)C(=O)c1cccc(O)c1C2=O (stereo not given) | 128 (≈ 191 µM) | 128 (≈ 191 µM) | 256 (≈ 381 µM) | 256 (≈ 381 µM) | 256 (≈ 381 µM) | 256 (≈ 381 µM) | 32 (≈ 47.6 µM) | 256 (≈ 381 µM) | 256 (≈ 381 µM) | 256 (≈ 381 µM)
11 | Cc1noc(NS(=O)(=O)c2ccc(NC(c3cc(O)c4c(c3)C(=O)c3cccc(O)c3C4=O)P(=O)(OC(C)C)OC(C)C)cc2)c1C (stereo not given) | 0.5 (≈ 0.731 µM) | 256 (≈ 374 µM) | 2 (≈ 2.93 µM) | 64 (≈ 93.6 µM) | 2 (≈ 2.93 µM) | 2 (≈ 2.93 µM) | 2 (≈ 2.93 µM) | 2 (≈ 2.93 µM) | 64 (≈ 93.6 µM) | 0.25 (≈ 0.366 µM)
12 | CCOP(=O)(OCC)C(Nc1ccc(S(=O)(=O)Nc2onc(C)c2C)cc1)c1cc(O)c2c(c1)C(=O)c1cccc(O)c1C2=O (stereo not given) | 256 (≈ 390 µM) | 256 (≈ 390 µM) | 256 (≈ 390 µM) | 256 (≈ 390 µM) | 256 (≈ 390 µM) | 256 (≈ 390 µM) | 256 (≈ 390 µM) | 256 (≈ 390 µM) | 256 (≈ 390 µM) | 16 (≈ 24.4 µM)
